Like-named read-outs stand apart in the source and are kept apart here.
Columns and labels:
[1] = Wild-type MDCK permeability and efflux assay (Papp, efflux ratio); format: in vitro ADME; settings: dog, pH 7.4, wild-type MDCK cells; for efflux ratio at 1 h, 10 μM: Papp B>A/Papp A>B, read-out: ER WT (Efflux Ratio)
Method: (§1) The MDR1-MDCK effective efflux assay was performed as described in the BioFocus Standard Operating Procedure, ADME-SOP-56. Both wild-type (WT) and MDR1-MDCK cells (Solvo Biotechnology) were seeded onto 24-well Transwell plates at 2.35×10^5 cells per well and used in confluent monolayers after a 3 day culture at 37° C. under 5% CO2. For both cell types, test and control compounds (propranolol, vinblastine) were added (10 μM, 0.1% DMSO final, n=2) to donor compartments of the Transwell plate assembly in assay buffer (Hanks balanced salt solution supplemented with 25 mM HEPES, adjusted to pH 7.4) for both apical to basolateral (A>B) and basolateral to apical (B>A) measurements. Incubations were performed at 37° C., with samples removed from both donor and acceptor chambers at T=0 and 1 hour and compound analysed by mass spectrometry (LC-MS/MS) including an analytical internal standard.
(§2) Apparent permeability (Papp) values were determined from the relationship: Papp=[CompoundAcceptor T=end]×V Acceptor/([Compound Donor T=0]×V Donor)/incubation time×V Donor/Area×60×10^−6 cm/s
(§3) In this equation, V is the volume of each Transwell compartment (apical 125 μL, basolateral 600 μL), and concentrations are the relative MS responses for compound (normalized to internal standard) in the donor chamber before incubation and acceptor chamber at the end of the incubation, and Area is the area of cells exposed for drug transfer (0.33 cm^2).
(§4) Efflux ratios (Papp B>A/Papp A>B) were calculated for each compound from the mean Papp values in each direction for both wild-type and MDR1-MDCK cells.
(§5) In order to confirm the involvement of MDR1 in any efflux seen, an “effective efflux ratio” (EER) was calculated by comparing compound efflux ratios (ER) in the two cell types by the following equation: EER=ER(MDR1-MDCK)/ER(wild-type MDCK)
(§6) This ratio illustrates the effect of the over-expressed MDR1 normalised for the background movement of compound through the wild-type cells.
(§7) Lucifer Yellow (LY) was added to the apical buffer in all wells to assess viability of the cell layer. […] Recoveries<50% indicates compound solubility, stability or binding issues, thereby reducing the reliability of a result.
(§8) The inherent ability of a potential drug molecule to penetrate the blood brain barrier and avoid efflux by transporters expressed in the brain, can be roughly correlated with the Papp(A-B) and the efflux ratio (as defined above), respectively. A potential drug molecule with an apparent permeability<7 (10^−6 cm/sec) has low permeability (+), >7 (10^−6 cm/sec) but <10 (10^−6 cm/sec) has moderate permeability (++), >10 (10^−6 cm/sec) but <20 (10^−6 cm/sec) has good permeability (+++), and >20 (10^−6 cm/sec) is highly permeable (++++). High permeability in the WT and MDCK II cell permeability assay increases the probability of blood brain barrier penetration and access to the CNS. A potential drug molecule in the above assay system with an efflux ratio or effective efflux ratio of <1 has low probability of being an efflux substrate (++++), >1 but <2 has moderate probability of being an efflux substrate (+++), >2 but <3 has has an increased probability of being an efflux substrate (++), and >3 has a high probability of being an efflux substrate (+). If a potential drug molecule is an efflux substrate, the molecule will have a low probability of reaching exposures in the brain (site of action) that will result in efficacious levels of receptor occupancy.

MDR1 (P-glycoprotein) = biological target: T1, MDR1 (P-glycoprotein) (Homo sapiens, UniProt P08183); assay: MDR1-MDCK permeability and efflux assay (Papp, efflux ratio, effective efflux ratio); format: in vitro ADME; settings: dog; for Papp A→B at 1 h, 10 μM: pH 7.4, read-out: Papp AB MDR1
T1 construct: host or cells: MDCK (MDR1-MDCK; wild-type MDCK as comparator)
T1 sequence (P08183 whole entry): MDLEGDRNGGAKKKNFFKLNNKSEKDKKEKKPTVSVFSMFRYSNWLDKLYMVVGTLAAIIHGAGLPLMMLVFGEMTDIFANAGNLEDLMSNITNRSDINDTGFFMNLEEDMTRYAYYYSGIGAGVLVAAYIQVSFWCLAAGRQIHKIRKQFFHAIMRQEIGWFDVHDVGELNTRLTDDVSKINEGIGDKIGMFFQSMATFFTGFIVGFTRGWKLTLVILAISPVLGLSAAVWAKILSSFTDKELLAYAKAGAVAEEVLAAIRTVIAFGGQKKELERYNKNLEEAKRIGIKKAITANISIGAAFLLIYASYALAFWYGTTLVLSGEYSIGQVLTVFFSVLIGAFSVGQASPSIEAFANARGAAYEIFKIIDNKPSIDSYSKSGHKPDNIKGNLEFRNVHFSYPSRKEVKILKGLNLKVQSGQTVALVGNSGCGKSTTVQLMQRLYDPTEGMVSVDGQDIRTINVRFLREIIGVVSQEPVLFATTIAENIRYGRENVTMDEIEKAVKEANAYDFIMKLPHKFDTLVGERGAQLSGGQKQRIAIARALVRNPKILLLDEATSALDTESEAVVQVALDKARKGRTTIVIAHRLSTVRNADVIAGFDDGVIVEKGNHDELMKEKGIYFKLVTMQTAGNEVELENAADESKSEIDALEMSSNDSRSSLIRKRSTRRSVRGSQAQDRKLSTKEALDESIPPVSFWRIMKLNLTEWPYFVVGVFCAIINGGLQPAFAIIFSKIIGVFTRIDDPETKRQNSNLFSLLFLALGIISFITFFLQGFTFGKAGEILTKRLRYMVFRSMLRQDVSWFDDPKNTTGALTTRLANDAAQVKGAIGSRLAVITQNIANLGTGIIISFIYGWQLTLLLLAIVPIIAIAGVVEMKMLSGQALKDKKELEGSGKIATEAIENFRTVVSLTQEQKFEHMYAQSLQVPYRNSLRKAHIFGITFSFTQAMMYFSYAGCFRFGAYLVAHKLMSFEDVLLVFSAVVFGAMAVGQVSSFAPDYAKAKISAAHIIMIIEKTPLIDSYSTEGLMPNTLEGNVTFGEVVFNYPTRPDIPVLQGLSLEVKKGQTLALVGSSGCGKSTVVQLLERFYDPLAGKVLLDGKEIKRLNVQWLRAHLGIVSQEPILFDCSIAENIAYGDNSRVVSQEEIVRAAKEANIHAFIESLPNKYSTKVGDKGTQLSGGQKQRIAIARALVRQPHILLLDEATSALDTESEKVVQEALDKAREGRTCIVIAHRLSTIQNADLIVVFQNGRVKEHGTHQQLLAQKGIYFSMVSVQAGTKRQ
Method: as §1, §2, §3, §4, §5, §6, §7, §8

[2] = MDCK-MDR1, pH 7.4, ER(MDR1-MDCK)/ER(wild-type MDCK), read-out: EER (Effective Efflux Ratio)
[3] = MDCK-MDR1, pH 7.4, Papp B>A/Papp A>B, MDR1-MDCK cells, read-out: ER MDR1 (Efflux Ratio)

| Compound | Papp A→B at 1 h, 10 μM [1] | efflux ratio at 1 h, 10 μM [1] | efflux ratio at 1 h, 10 μM (MDR1 (P-glycoprotein); [2]) | efflux ratio at 1 h, 10 μM (MDR1 (P-glycoprotein); [3]) | Papp A→B at 1 h, 10 μM (MDR1 (P-glycoprotein); MDR1-MDCK cells) |
| --- | --- | --- | --- | --- | --- |
| O=C(N1CC2(C1)CN(c1ccc(F)cn1)C2)N1CCC(O)c2cc(Cl)ccc21 (single isomer, unassigned) [13-1-A] | > 200 nm/s | < 1 | > 3 | > 3 | > 200 nm/s |
| COc1ccnc(N2CC3(CN(C(=O)N4c5ccc(Cl)cc5OCC4C)C3)C2)c1 (single isomer, unassigned) [20-8-B] | > 200 nm/s | < 1 | < 1 | < 1 | > 200 nm/s |
| O=C(N1CC2(C1)CN(c1ccc(F)cn1)C2)N1CCOCc2cc(Cl)ccc21 [8-4] | > 200 nm/s | 1 to 2 | 1 to 2 | 1 to 2 | > 200 nm/s |
| O=C(N1CC2(C1)CN(c1ccc(F)cn1)C2)N1CCc2cc(Cl)ccc21 [8-11] | > 200 nm/s | < 1 | < 1 | < 1 | > 200 nm/s |
| COc1ccnc(N2CC3(CN(C(=O)N4c5ccc(Cl)cc5OCC4C)C3)C2)n1 (single isomer, unassigned) [20-9-B] | > 200 nm/s | < 1 | 1 to 2 | 1 to 2 | > 200 nm/s |
| O=C(N1CC2(C1)CN(c1ccccn1)C2)N1CCOCc2cc(Cl)ccc21 [8-12] | > 200 nm/s | < 1 | 2 to 3 | 2 to 3 | > 200 nm/s |
| Cc1ccnc(N2CC3(CN(C(=O)N4c5ccc(Cl)cc5OCC4C)C3)C2)n1 (single isomer, unassigned) [20-12-B] | > 200 nm/s | < 1 | 1 to 2 | 1 to 2 | > 200 nm/s |
| CC1COc2cc(F)ccc2N1C(=O)N1CC2(C1)CN(c1noc3ccccc13)C2 (single isomer, unassigned) [4-3-B] | > 200 nm/s | < 1 | < 1 | < 1 | > 200 nm/s |
| CC1COc2cc(F)ccc2N1C(=O)N1CC2(C1)CN(c1cc(C#N)ccn1)C2 (single isomer, unassigned) [20-3-B] | > 200 nm/s | < 1 | 1 to 2 | 1 to 2 | > 200 nm/s |
| CC1COc2cc(Cl)c(F)cc2N1C(=O)N1CC2(C1)CN(c1cccnn1)C2 (single isomer, unassigned) [19-4-A] | > 200 nm/s | 1 to 2 | 2 to 3 | 2 to 3 | > 200 nm/s |
| O=C(N1CC2(C1)CN(c1ccccn1)C2)N1CCC(O)c2cc(Cl)ccc21 (single isomer, unassigned) [13-2-B] | > 200 nm/s | 1 to 2 | > 3 | > 3 | > 200 nm/s |
| CC1COc2cc(Cl)ccc2N1C(=O)N1CC2(C1)CN(c1cccnn1)C2 (single isomer, unassigned) [9-1-B] | > 200 nm/s | 1 to 2 | 2 to 3 | > 3 | > 200 nm/s |
| CC1COc2cc(F)c(F)cc2N1C(=O)N1CC2(C1)CN(c1ncccn1)C2 (single isomer, unassigned) [19-1-B] | > 200 nm/s | 1 to 2 | < 1 | 1 to 2 | > 200 nm/s |
| Cc1nccnc1N1CC2(CN(C(=O)N3c4ccc(Cl)cc4OCC3C)C2)C1 (single isomer, unassigned) [20-10-A] | > 200 nm/s | < 1 | 1 to 2 | 1 to 2 | > 200 nm/s |
| CC1COc2cc(F)ccc2N1C(=O)N1CC2(C1)CN(c1noc3ccccc13)C2 (stereo not shown) [4-3] | > 200 nm/s | < 1 | < 1 | < 1 | > 200 nm/s |
| Cc1ccnc(N2CC3(CN(C(=O)N4c5ccc(F)cc5OCC4C)C3)C2)c1 (single isomer, unassigned) [20-4-B] | > 200 nm/s | < 1 | 1 to 2 | < 1 | > 200 nm/s |
| Cc1cncc(N2CC3(CN(C(=O)N4c5ccc(F)cc5OCC4C)C3)C2)n1 (single isomer, unassigned) [20-2-A] | > 200 nm/s | < 1 | 1 to 2 | 1 to 2 | > 200 nm/s |
| CC1COc2cc(Cl)ccc2N1C(=O)N1CC2(C1)CN(c1noc3cccnc13)C2 (single isomer, unassigned) [18-3-B] | > 200 nm/s | < 1 | < 1 | < 1 | > 200 nm/s |

Further lines, results first:

| Papp A→B at 1 h, 10 μM [1] | efflux ratio at 1 h, 10 μM [1] | efflux ratio at 1 h, 10 μM (MDR1 (P-glycoprotein); [2]) | efflux ratio at 1 h, 10 μM (MDR1 (P-glycoprotein); [3]) | Papp A→B at 1 h, 10 μM (MDR1 (P-glycoprotein); MDR1-MDCK cells) | Compound |
| --- | --- | --- | --- | --- | --- |
| > 200 nm/s | < 1 | 1 to 2 | 1 to 2 | > 200 nm/s | CC1COc2cc(F)c(F)cc2N1C(=O)N1CC2(C1)CN(c1ccc(F)cn1)C2 (stereo not shown) [19-5] |
| > 200 nm/s | < 1 | < 1 | < 1 | > 200 nm/s | CC1COc2cc(Cl)ccc2N1C(=O)N1CC2(C1)CN(c1noc3cccnc13)C2 (stereo not shown) [18-3] |
| > 200 nm/s | < 1 | < 1 | < 1 | > 200 nm/s | Cc1nccnc1N1CC2(CN(C(=O)N3c4ccc(Cl)cc4OCC3C)C2)C1 (stereo not shown) [20-10] |
| > 200 nm/s | 1 to 2 | 1 to 2 | 1 to 2 | > 200 nm/s | Cc1cncc(N2CC3(CN(C(=O)N4c5ccc(F)cc5OCC4C)C3)C2)n1 (stereo not shown) [20-2] |
| > 200 nm/s | < 1 | 1 to 2 | < 1 | > 200 nm/s | O=C(N1CC2(C1)CN(c1ccc(F)cn1)C2)N1CCOc2cc(Cl)ccc21 [9-7] |
| > 200 nm/s | < 1 | 1 to 2 | < 1 | > 200 nm/s | O=C(N1CC2(C1)CN(c1ccc(F)cn1)C2)N1CCC(F)(F)c2cc(Cl)ccc21 [17-1, (6-chloro-4,4-difluoro-3,4-dihydroquinolin-1(2H)-yl)(6-(5-fluoropyridin-2-yl)-2,6-diazaspiro[3.3]heptan-2-yl)methanone] |
| > 200 nm/s | < 1 | < 1 | < 1 | > 200 nm/s | COc1ccnc(N2CC3(CN(C(=O)N4c5ccc(Cl)cc5OCC4C)C3)C2)c1 (stereo not shown) [20-8] |
| > 200 nm/s | < 1 | < 1 | < 1 | > 200 nm/s | Cc1ccnc(N2CC3(CN(C(=O)N4c5ccc(Cl)cc5OCC4C)C3)C2)c1 (stereo not shown) [20-11] |

Reference: patent US12152038B2, “Vasopressin receptor antagonists and products and methods related thereto” (Neumora Therapeutics, Inc., priority 2017, dated 2024)
